The subject of one assay is pERK in MKN1 cells. The assay is described as follows: pERK inhibition, In-Cell Western (LI-COR Odyssey), MKN1 cells. As to conditions: Homo sapiens. It counts as cell-based. In short, it runs like this:
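IC50 was fitted from % pERK inhibition, calculated as the GAPDH-normalised pERK signal of each well divided by the vehicle mean. Signal was imaged at 700 and 800 nm after fixation, methanol permeabilisation and dual antibody staining. Before fixation, MKN1 cells had received compound for about 0.5–1 h at 37 °C, top concentration 10 µM, nine 3-fold dilutions.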

The target of assay [1] is T1, recombinant human SOS1 polypeptide (amino acids 560-1049) (Homo sapiens, UniProt Q07889).
T1 construct: corresponding to amino acids 560-1049, expressed in E. Coli; made in house; host or cells: E. coli
T1 sequence (Q07889 560-1049): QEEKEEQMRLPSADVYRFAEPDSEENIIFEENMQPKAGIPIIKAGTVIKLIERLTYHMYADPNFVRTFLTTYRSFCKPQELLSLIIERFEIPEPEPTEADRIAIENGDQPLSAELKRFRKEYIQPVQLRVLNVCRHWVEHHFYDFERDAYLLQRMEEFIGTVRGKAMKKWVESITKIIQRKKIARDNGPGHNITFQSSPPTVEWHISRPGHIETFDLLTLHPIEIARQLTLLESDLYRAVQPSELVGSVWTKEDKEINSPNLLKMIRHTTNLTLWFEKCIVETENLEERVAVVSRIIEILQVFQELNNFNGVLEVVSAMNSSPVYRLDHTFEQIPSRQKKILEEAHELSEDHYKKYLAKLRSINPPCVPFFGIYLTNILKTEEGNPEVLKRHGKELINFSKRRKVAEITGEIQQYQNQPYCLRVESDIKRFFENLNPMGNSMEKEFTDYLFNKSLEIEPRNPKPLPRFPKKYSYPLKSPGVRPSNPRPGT
Description: HTRF displacement assay: inhibition of labeled tracer binding to SOS1. Conditions: Table A1, Morrison equation for competitive binding. (In TR-FRET formats the signal depends on donor and acceptor labels being close together.)
Description: The ability of a compound of Formula (I) to bind to SOS1 was measured using a HTRF displacement assay. […] After a 1-hour incubation at room temperature, the HTRF signal was measured using Clairostar plate reader (BMG Labtech) according to the manufacturer's instructions. Excitation filter EX-TR was used, and emission 1 was detected at 650-610 nm and emission 2 detected at 620-610 nm. The HTRF ratio was calculated using the formula: [emission 1/emission 2]*10000.
Background signals were calculated from well with a 10 μM inhibitor, known to inhibit 100% at that concentration. The background subtracted signals were converted to % binding relative to DMSO controls. Data were analyzed using XLFIT software (IDBS) using a Morrison equation for competitive binding and Ki's were generated compound of Formula (I).

[2] abbreviates: MKN-1, Table B1, MKN1 or H358 cells (table does not say which), 0.5-1 hour incubation, read-out: IC50 (nM), pERK inhibition.
Setting [3] is: MKN-1, read-out: IC50 (nM), pERK inhibition.

Where a name gives a salt, the structure may show the parent alone. Read-outs that look alike come from different tables or passages of the source.

As to `Cc1c(C#N)cccc1[C@@H](C)Nc1nnc(C)c2c(C)nc(N(C)[C@H]3CCN(C)C3)cc12` [Example P-190, 3-((R)-1-((4,5-dimethyl-7-(methyl((S)-1-methylpyrrolidin-3-yl)amino)pyrido[3,4-d]pyridazin-1-yl)amino)ethyl)-2-methylbenzonitrile], the IC50 in the assay on pERK in MKN1 cells (setting [2]) amounted to 63.6 nM. Besides, the Ki in assay [1] turned out to be 0.572 nM.
On the same counts, the results for `Cc1c(C#N)cccc1[C@@H](C)Nc1nnc(C)c2c(C)nc(N3CCN(C)C(C)(C)C3)cc12` [Example P-191, (R)-3-(1-((4,5-dimethyl-7-(3,3,4-trimethylpiperazin-1-yl)pyrido[3,4-d]pyridazin-1-yl)amino)ethyl)-2-methylbenzonitrile] are 26 nM and 0.892 nM.
On to `Cc1c(C#N)cccc1[C@@H](C)Nc1nnc(C)c2c(C)nc(N3C[C@H]4C[C@@H]3CN4C)cc12` [Example P-192, 3-((R)-1-((4,5-dimethyl-7-((1R,4R)-5-methyl-2,5-diazabicyclo[2.2.1]heptan-2-yl)pyrido[3,4-d]pyridazin-1-yl)amino)ethyl)-2-methylbenzonitrile], for which, in the assay with pERK in MKN1 cells (setting [2]), the IC50 was 104 nM. For the same compound, the Ki in assay [1] is 2.93 nM.
On the same counts, the results for `Cc1c(C#N)cccc1[C@@H](C)Nc1nnc(C)c2cc(Cl)c(N(C)[C@H]3CCN(C)C3)cc12` [Example P-193, 3-((R)-1-((6-chloro-4-methyl-7-(methyl((S)-1-methylpyrrolidin-3-yl)amino)phthalazin-1-yl)amino)ethyl)-2-methylbenzonitrile] are 512 nM and 1.47 nM.
As for `Cc1c(C#N)cccc1[C@@H](C)Nc1nnc(C)c2cc(Cl)c(N(C)[C@@H]3CCN(C)C3)cc12` [Example P-194, 3-((R)-1-((6-chloro-4-methyl-7-(methyl((R)-1-methylpyrrolidin-3-yl)amino)phthalazin-1-yl)amino)ethyl)-2-methylbenzonitrile], the IC50 in the assay on pERK in MKN1 cells (setting [2]) worked out at 231 nM. The Ki in assay [1] amounted to 5.27 nM.
Consider `Cc1c(C#N)cccc1[C@@H](C)Nc1nnc(C)c2cc(Cl)c(N(C)C)cc12` [Example P-195, (R)-3-(1-((6-chloro-7-(dimethylamino)-4-methylphthalazin-1-yl)amino)ethyl)-2-methylbenzonitrile formic acid salt], for which the IC50 in the assay on pERK in MKN1 cells (setting [3]) is 7130 nM. In assay [1], the Ki was 154 nM.
On the same counts, the results for `Cc1c(C#N)cccc1[C@@H](C)Nc1nnc(C)c2cc(Cl)c(N(C)C[C@H]3CCCN3C)cc12` [Example P-196, 3-((R)-1-((6-chloro-4-methyl-7-(methyl(((R)-1-methylpyrrolidin-2-yl)methyl)amino)phthalazin-1-yl)amino)ethyl)-2-methylbenzonitrile formic acid salt] are 584 nM and 5.98 nM.
`Cc1c(C#N)cccc1[C@@H](C)Nc1nnc(C)c2cc(Cl)c(N3CCS(=O)(=O)CC3)cc12` [Example P-197, (R)-3-(1-((6-chloro-7-(1,1-dioxidothiomorpholino)-4-methylphthalazin-1-yl)amino)ethyl)-2-methylbenzonitrile]: in the assay with pERK in MKN1 cells (setting [2]), the IC50 stood at 204 nM. Besides, in assay [1], the Ki turned out to be 8.97 nM.
On the same counts, the results for `Cc1c(C#N)cccc1[C@@H](C)Nc1nnc(C)c2cc(Cl)c(N3CCC34CN(C)C4)cc12` [Example P-198, (R)-3-(1-((6-chloro-4-methyl-7-(6-methyl-1,6-diazaspiro[3.3]heptan-1-yl)phthalazin-1-yl)amino)ethyl)-2-methylbenzonitrile] are 182 nM and 1.1 nM.
Turning to `Cc1nnc(N[C@H](C)c2cccc(C(C)(F)F)c2F)c2cc(N(C)[C@@H]3CCN(C)C3)ncc12` [Example P-199, N1-((R)-1-(3-(1,1-difluoroethyl)-2-fluorophenyl)ethyl)-N7,4-dimethyl-N7-((R)-1-methylpyrrolidin-3-yl)pyrido[3,4-d]pyridazine-1,7-diamine], the IC50 in the assay on pERK in MKN1 cells (setting [2]) came to 59.1 nM. Moreover, in assay [1], the Ki is 0.321 nM.
As to `Cc1nnc(N[C@H](C)c2cccc(C(C)(F)F)c2F)c2cc(N(C)[C@H]3CCN(C)C3)ncc12` [Example P-200, N1-((R)-1-(3-(1,1-difluoroethyl)-2-fluorophenyl)ethyl)-N7,4-dimethyl-N7-((S)-1-methylpyrrolidin-3-yl)pyrido[3,4-d]pyridazine-1,7-diamine], in the assay with pERK in MKN1 cells (setting [2]), the IC50 is 6.77 nM. The Ki in assay [1] worked out at 0.517 nM.
On the same counts, the results for `Cc1c(C#N)cccc1[C@@H](C)Nc1nnc(C)c2cnc(N3CCOCC34CN(C)C4)cc12` [Example P-211, (R)-2-methyl-3-(1-((4-methyl-7-(2-methyl-8-oxa-2,5-diazaspiro[3.5]nonan-5-yl)pyrido[3,4-d]pyridazin-1-yl)amino)ethyl)benzonitrile] are 503 nM and 13.4 nM.
On the same counts, the results for `Cc1ccccc1[C@@H](C)Nc1nnc(C)c2cnc(N3CCOCC3)cc12` [Example P-212, (R)-4-methyl-7-morpholino-N-(1-(o-tolyl)ethyl)pyrido[3,4-d]pyridazin-1-amine] are 894 nM and 54.8 nM.
On the same counts, the results for `Cc1c(Br)cccc1[C@@H](C)Nc1nnc(C)c2cc(F)c(N3CCC34CN(C)C4)cc12` [Example P-214, (R)-N-(1-(3-bromo-2-methylphenyl)ethyl)-6-fluoro-4-methyl-7-(6-methyl-1,6-diazaspiro[3.3]heptan-1-yl)phthalazin-1-amine] are 156 nM and 0.262 nM.
Consider `CC(=O)N1CC2(CCN2c2cc3c(N[C@H](C)c4cccc(C#N)c4C)nnc(C)c3cn2)C1` [Example P-215, (R)-3-(1-((7-(6-acetyl-1,6-diazaspiro[3.3]heptan-1-yl)-4-methylpyrido[3,4-d]pyridazin-1-yl)amino)ethyl)-2-methylbenzonitrile], for which, in the assay with pERK in MKN1 cells (setting [2]), the IC50 was found to be 38.7 nM. Further, the Ki in assay [1] was 2.23 nM.
Take `CC(=O)N1CC2(CCN2c2cc3c(N[C@H](C)c4cccc(C#N)c4C)nnc(C)c3cc2F)C1` [Example P-216, (R)-3-(1-((7-(6-acetyl-1,6-diazaspiro[3.3]heptan-1-yl)-6-fluoro-4-methylphthalazin-1-yl)amino)ethyl)-2-methylbenzonitrile formic acid salt]: the IC50 in the assay with pERK in MKN1 cells (setting [3]) was 27.9 nM. For the same compound, the Ki in assay [1] was 1.98 nM.
Take `COCCN1CC2(CCN2c2cc3c(N[C@H](C)c4cccc(C#N)c4C)nnc(C)c3cn2)C1` [Example P-217, (R)-3-(1-((7-(6-(2-methoxyethyl)-1,6-diazaspiro[3.3]heptan-1-yl)-4-methylpyrido[3,4-d]pyridazin-1-yl)amino)ethyl)-2-methylbenzonitrile formic acid salt]: the IC50 with pERK in MKN1 cells (setting [3]) came to 43.1 nM. In addition, the Ki in assay [1] came to 0.762 nM.
In the case of `COCCN1CC2(CCN2c2cc3c(N[C@H](C)c4cccc(C#N)c4C)nnc(C)c3cc2F)C1` [Example P-218, (R)-3-(1-((6-fluoro-7-(6-(2-methoxyethyl)-1,6-diazaspiro[3.3]heptan-1-yl)-4-methylphthalazin-1-yl)amino)ethyl)-2-methylbenzonitrile formic acid salt], in the assay with pERK in MKN1 cells (setting [3]), the IC50 was determined as 60.3 nM. Also, the Ki in assay [1] was 0.786 nM.
Regarding `Cc1c(C#N)cccc1[C@@H](C)Nc1nnc(C)c2cc(F)c(N3CCC34CN(CCO)C4)cc12` [Example P-219, (R)-3-(1-((6-fluoro-7-(6-(2-hydroxyethyl)-1,6-diazaspiro[3.3]heptan-1-yl)-4-methylphthalazin-1-yl)amino)ethyl)-2-methylbenzonitrile], the IC50 in the assay with pERK in MKN1 cells (setting [2]) came out at 41.1 nM. The Ki in assay [1] was determined as 0.665 nM.
On the same counts, the results for `Cc1c(C#N)cccc1[C@@H](C)Nc1nnc(C)c2cc(F)c(N3CCC34CN(CCC(=O)O)C4)cc12` [Example P-220, (R)-3-(1-(4-((1-(3-cyano-2-methylphenyl)ethyl)amino)-7-fluoro-1-methylphthalazin-6-yl)-1,6-diazaspiro[3.3]heptan-6-yl)propanoic acid] are 4110 nM and 0.678 nM.
On the same counts, the results for `CNc1cc2c(N[C@H](C)c3cccc(C#N)c3C)nnc(C)c2cc1F` [Example P-221, (R)-3-(1-((6-fluoro-4-methyl-7-(methylamino)phthalazin-1-yl)amino)ethyl)-2-methylbenzonitrile] are 154 nM and 8.75 nM.
On the same counts, the results for `Cc1c(C#N)cccc1[C@@H](C)Nc1nnc(C)c2cc(F)c(N(C)C)cc12` [Example P-222, (R)-3-(1-((7-(dimethylamino)-6-fluoro-4-methylphthalazin-1-yl)amino)ethyl)-2-methylbenzonitrile] are 188 nM and 3.97 nM.
As for `Cc1c(C#N)cccc1[C@@H](C)Nc1nnc(C)c2cc(F)c(N3CCC3)cc12` [Example P-223, (R)-3-(1-((7-(azetidin-1-yl)-6-fluoro-4-methylphthalazin-1-yl)amino)ethyl)-2-methylbenzonitrile formic acid salt], the IC50 in the assay on pERK in MKN1 cells (setting [3]) amounted to 141 nM. Besides, in assay [1], the Ki was 9.3 nM.

In general, IC50 refers to the midpoint of a concentration-inhibition curve. For orientation: Ki means the equilibrium dissociation constant of an inhibitor or competing ligand from its target.

Source of the values: patent US20250059182A1, “SOS1 INHIBITORS” (Mirati Therapeutics, Inc., priority 2021, published 2025).
